Assay results: patent US20060205949A1, “Crystalline forms of a biphenyl compound” (THERAVANCE, INC., priority 2005, published 2006)

What was measured:
[1] = Pre-Micronization
[2] = pH 4.5
Method: A solution was prepared with 0.1 mg/mL freebase equivalents (using a crystalline mononapadisylate salt prepared as described in Example 2) in 10 mM citrate buffered normal saline, pH 4.5. […] Less than 0.5% degradation was observed after storage for one month at 40° C./75% RH.

[3] = 6 weeks; −20° C. closed, 40° C./75% RH open and closed, 50° C. closed; all conditions
Method: Samples of the crystalline mononapadisylate salt of Example 2, about 200 mg each, were stored in multiple 3 mL borosilicate vials at −20° C. (closed container), 40° C./75% RH (open and closed container), and at 50° C. (closed container). At specific intervals, the entire contents of a representative vial was analyzed by the following HPLC method:
Column: Agilent Zorbox SB-C18, 4.6×250 mm, 5 μm; Mobile Phase A: 98% water, 2% ACN, 0.1% TFA; Mobile Phase B: 10% water, 90% ACN; 0.1% TFA; Flow rate: 1 mL/min; Injection Volume: 20 μL; Detector: 220 nm; Gradient-Time in minutes (% Mobile Phase B): 0.0 (10); 4.00 (20); 26.00 (28); 34.40 (100); 38.40 (100); 38.50 (10); and 45.00 (10). […] These stock solutions were diluted to 1 mg/mL in 10% ACN for injection onto the HPLC.

[4] = Dynamic moisture sorption (DMS) assessment; format: physicochemical
Method: A dynamic moisture sorption (DMS) assessment (also known as a moisture sorption-desorption profile) was performed for samples of the crystalline naphthalene-1,5-disulfonic acid salts using a VTI atmospheric microbalance, SGA-100 system (VTI Corp., Hialeah, Fla. 33016). A sample size of approximately 10 mg was used and the humidity was set at the ambient value at the start of the analysis. A typical DMS analysis consisted of three scans: ambient to 2% relative humidity (RH), 2% RH to 90% RH, 90% RH to 5% RH at a scan rate of 5% RH/step. The mass was measured every two minutes and the RH was changed to the next value (+/−5% RH) when the mass of the sample was stable to within 0.01% for 5 consecutive points.

[5] = Differential scanning calorimetry (thermal stability); format: physicochemical; settings: DSC trace, 10° C./min
Method: Differential scanning calorimetry (DSC) was performed using a TA Instruments Model Q-10 module with a Thermal Analyst controller. Data were collected and analyzed using TA Instruments Thermal Solutions software. A sample of about 1 mg was accurately weighed into an aluminum pan with lid. The sample was evaluated using a linear heating ramp of 10° C./min from ambient temperature to approximately 250° C. The DSC cell was purged with dry nitrogen during use.

With `O=C(CCN1CCC(OC(=O)Nc2ccccc2-c2ccccc2)CC1)NCCCCCNCc1ccc(O)cc1.O=S(=O)(O)c1cccc2c(S(=O)(=O)O)cccc12` [Crystalline Mononapadisylate Salt of Biphenyl-2-ylcarbamic Acid 1-2-[5-(4-Hydroxybenzylamino)pentylcarbamoyl]ethyl]piperidin-4-yl Ester] the “particle size D (v, 0.1)” value [1] was 2.5 μm, the “particle size D (v, 0.5)” value [1] was 9.4 μm and the “particle size D (v, 0.9)” value [1] was 22.1 μm. The degradation in solution ([2]; 0.1 mg/mL freebase equivalents in 10 mM citrate buffered normal saline, one month at 40° C./75% RH) was “Less than 0.5%”, the solubility ([2]; 10 mM citrate buffered normal saline) was “approximately 0.4 mg/mL” and the “change in chemical purity (HPLC)” value [3] was “no detectable change”. The “change in the appearance of the material” value [3] was “no observable change”, the “sorption/desorption profile and hygroscopicity” value ([4]; DMS trace) was “reversible sorption/desorption profile with low hygroscopicity” and the weight gain ([4]; exposed to 2-90% RH) was 4.5%. The weight gain ([4]; humidity range of 40-70% RH) was 0.7%, the weight gain ([4]; humidity range of 40-75% RH) was 0.8% and the weight gain ([4]; humidity range of 40-75% RH, listed as crystalline mononapadisylate salt of the compound of formula I) was “less than 0.8%”. The “thermal decomposition temperature (no thermal decomposition below)” value [5] was no less than 225 °C.
